In assay [1] the target is T1, Son of sevenless homolog 1 (Homo sapiens) (UniProt Q07889).
T1 sequence (whole entry): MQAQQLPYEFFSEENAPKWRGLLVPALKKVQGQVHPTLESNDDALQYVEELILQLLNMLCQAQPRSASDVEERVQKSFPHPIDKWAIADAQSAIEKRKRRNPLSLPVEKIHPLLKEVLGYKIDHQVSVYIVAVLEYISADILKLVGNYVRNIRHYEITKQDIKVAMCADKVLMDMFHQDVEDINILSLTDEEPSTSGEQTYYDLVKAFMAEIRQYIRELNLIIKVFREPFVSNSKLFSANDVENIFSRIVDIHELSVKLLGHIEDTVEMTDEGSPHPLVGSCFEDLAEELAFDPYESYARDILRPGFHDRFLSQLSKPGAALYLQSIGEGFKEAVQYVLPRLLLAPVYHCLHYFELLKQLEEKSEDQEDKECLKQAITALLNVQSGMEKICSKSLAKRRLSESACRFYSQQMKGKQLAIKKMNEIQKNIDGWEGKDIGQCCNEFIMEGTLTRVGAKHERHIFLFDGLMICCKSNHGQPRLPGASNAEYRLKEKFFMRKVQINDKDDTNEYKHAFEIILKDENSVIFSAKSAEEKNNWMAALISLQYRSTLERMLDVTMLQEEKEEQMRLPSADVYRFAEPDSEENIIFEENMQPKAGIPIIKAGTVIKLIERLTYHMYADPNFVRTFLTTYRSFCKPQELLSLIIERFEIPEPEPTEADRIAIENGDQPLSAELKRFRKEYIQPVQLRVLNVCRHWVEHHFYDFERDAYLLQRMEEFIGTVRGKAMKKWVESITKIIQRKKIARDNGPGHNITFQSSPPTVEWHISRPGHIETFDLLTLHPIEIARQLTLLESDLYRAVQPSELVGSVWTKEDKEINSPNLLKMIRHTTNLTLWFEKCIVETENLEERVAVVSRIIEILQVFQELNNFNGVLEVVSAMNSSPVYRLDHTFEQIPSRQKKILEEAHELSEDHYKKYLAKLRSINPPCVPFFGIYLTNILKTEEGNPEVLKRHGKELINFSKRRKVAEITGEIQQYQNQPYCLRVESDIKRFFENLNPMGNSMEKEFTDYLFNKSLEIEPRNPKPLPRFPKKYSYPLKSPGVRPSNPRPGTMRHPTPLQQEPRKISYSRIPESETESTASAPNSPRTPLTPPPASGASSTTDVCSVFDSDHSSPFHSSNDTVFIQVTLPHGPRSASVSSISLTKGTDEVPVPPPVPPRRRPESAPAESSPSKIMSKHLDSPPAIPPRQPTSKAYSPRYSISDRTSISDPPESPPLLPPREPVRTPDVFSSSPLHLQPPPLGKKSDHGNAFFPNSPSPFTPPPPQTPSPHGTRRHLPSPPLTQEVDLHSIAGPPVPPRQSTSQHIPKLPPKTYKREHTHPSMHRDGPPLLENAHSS
Kind of assay: Inhibition of N-terminal His10-tagged wild-type recombinant human SOS1 catalytic domain (564 to 1049 residues) expressed in Escherichia coli assessed as reduction in KRAS G12C mutant activation at 10 uM by HTRF analysis relative to control.

In assay [2] the test system is Tyrosine-protein kinase ABL1 (Homo sapiens), P00519 [F317I]. The assay can be described thus: Inhibition of nonphosphorylated ABL1 F317I mutant (unknown origin) assessed as residual activity at 100 nM by KINOMEscan analysis relative to control.
Chain of Tyrosine-protein kinase ABL1 (Homo sapiens), P00519 [F317I] (P00519 whole entry F317I): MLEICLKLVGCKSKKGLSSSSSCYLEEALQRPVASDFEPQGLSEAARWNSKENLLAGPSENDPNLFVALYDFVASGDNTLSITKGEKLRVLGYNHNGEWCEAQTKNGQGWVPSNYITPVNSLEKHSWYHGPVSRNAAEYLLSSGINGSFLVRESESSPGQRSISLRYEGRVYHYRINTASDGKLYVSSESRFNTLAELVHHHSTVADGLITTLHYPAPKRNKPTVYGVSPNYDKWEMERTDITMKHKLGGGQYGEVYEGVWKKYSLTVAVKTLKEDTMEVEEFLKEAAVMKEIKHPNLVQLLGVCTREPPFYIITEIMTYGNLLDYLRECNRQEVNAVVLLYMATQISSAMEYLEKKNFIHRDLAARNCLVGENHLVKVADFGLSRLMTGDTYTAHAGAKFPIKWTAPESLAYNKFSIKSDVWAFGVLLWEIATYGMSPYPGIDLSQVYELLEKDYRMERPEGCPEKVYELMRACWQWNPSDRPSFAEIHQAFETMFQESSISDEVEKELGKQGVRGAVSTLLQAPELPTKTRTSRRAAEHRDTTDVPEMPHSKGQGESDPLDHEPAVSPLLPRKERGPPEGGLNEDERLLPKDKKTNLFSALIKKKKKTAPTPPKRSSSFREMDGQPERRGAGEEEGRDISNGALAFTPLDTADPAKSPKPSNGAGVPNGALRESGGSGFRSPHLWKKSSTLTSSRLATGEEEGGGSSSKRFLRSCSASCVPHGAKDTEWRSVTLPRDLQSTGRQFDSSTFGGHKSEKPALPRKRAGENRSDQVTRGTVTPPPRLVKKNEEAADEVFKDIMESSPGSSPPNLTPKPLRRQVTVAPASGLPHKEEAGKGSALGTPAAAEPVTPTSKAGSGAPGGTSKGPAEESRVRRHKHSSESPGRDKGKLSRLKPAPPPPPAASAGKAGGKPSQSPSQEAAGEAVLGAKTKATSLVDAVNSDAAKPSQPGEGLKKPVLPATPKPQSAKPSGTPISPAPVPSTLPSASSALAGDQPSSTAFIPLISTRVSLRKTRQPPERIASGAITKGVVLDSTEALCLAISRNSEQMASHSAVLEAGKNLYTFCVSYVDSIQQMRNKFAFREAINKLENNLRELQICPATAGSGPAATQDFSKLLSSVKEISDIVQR
In assay [3] the target is T2, Serine/threonine-protein kinase BRSK1 (Homo sapiens) (UniProt Q8TDC3).
T2 sequence (whole entry): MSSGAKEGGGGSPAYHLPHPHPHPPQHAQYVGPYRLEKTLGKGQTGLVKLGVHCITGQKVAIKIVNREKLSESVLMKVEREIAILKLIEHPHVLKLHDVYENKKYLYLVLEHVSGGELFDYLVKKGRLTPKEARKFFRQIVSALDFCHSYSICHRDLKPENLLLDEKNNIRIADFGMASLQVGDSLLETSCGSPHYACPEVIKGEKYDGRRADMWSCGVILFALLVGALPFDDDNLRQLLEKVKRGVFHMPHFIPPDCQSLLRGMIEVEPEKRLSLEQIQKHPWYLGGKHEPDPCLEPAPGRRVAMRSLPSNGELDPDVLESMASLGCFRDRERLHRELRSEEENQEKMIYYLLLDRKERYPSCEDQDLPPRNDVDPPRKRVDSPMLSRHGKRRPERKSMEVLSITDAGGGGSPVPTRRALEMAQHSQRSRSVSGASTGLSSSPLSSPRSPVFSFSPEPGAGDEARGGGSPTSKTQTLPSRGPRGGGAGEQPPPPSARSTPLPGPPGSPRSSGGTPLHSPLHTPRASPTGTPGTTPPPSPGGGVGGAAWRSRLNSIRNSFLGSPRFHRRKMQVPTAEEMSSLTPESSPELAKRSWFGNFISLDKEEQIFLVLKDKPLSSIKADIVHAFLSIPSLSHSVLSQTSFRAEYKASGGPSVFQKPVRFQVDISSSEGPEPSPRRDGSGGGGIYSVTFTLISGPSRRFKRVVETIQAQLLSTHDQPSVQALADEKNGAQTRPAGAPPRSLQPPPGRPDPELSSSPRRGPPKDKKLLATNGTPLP
Kind of assay: Inhibition of BRSK1 (unknown origin) assessed as residual activity at 100 nM by KINOMEscan analysis relative to control.

The target in assay [4] is Calcium/calmodulin-dependent protein kinase type 1G (Homo sapiens) (UniProt Q96NX5). The assay can be described thus: Inhibition of CAMK1G (unknown origin) assessed as residual activity at 100 nM by KINOMEscan analysis relative to control.
Chain of Calcium/calmodulin-dependent protein kinase type 1G (Homo sapiens) (Q96NX5 whole entry): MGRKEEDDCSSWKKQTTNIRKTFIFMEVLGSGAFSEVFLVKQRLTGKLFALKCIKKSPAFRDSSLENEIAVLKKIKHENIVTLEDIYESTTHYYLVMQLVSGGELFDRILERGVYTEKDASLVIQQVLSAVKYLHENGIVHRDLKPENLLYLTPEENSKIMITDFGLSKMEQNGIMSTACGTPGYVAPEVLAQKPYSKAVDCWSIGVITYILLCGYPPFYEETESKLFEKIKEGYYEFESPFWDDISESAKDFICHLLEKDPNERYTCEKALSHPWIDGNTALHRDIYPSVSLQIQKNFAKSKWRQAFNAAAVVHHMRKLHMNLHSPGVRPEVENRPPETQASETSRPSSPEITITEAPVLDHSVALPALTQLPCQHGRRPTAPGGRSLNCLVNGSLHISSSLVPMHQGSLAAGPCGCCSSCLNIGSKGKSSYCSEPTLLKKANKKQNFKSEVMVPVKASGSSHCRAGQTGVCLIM
Assay [5] has as its target Ephrin type-A receptor 7 (Homo sapiens) (UniProt Q15375). Kind of assay: Inhibition of EPHA7 (unknown origin) assessed as residual activity at 100 nM by KINOMEscan analysis relative to control.
Assay [6] has as its system Receptor-type tyrosine-protein kinase FLT3 (Homo sapiens), P36888 [K663Q]. Kind of assay: Inhibition of FLT3 K663Q mutant (unknown origin) assessed as residual activity at 100 nM by KINOMEscan analysis relative to control.
The target of assay [7] is Tyrosine-protein kinase Lck (Homo sapiens) (UniProt P06239). The assay can be described thus: Inhibition of LCK (unknown origin) assessed as residual activity at 100 nM by KINOMEscan analysis relative to control.
Chain of Tyrosine-protein kinase Lck (Homo sapiens) (P06239 2-509 limits assumed): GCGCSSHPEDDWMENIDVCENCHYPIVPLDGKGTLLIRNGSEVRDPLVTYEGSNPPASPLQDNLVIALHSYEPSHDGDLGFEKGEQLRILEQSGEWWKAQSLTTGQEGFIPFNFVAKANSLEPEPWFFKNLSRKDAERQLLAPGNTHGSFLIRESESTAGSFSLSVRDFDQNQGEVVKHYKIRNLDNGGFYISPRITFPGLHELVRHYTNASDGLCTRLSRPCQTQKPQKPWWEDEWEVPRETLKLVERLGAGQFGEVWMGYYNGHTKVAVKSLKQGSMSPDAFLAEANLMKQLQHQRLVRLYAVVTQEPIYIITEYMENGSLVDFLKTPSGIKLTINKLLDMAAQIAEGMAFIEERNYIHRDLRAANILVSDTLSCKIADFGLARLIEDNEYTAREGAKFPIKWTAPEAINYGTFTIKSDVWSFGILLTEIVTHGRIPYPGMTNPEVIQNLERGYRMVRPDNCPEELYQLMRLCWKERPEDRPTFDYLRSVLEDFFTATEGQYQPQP
The target in assay [8] is Myosin light chain kinase, smooth muscle (Homo sapiens) (UniProt Q15746). Kind of assay: Inhibition of MYLK (unknown origin) assessed as residual activity at 100 nM by KINOMEscan analysis relative to control.
In assay [9] the target is cAMP-dependent protein kinase catalytic subunit beta (Homo sapiens) (UniProt P22694). The assay can be described thus: Inhibition of PKAC-beta (unknown origin) assessed as residual activity at 100 nM by KINOMEscan analysis relative to control.
Assay [10] deals with Tyrosine-protein kinase Srms (Homo sapiens) (UniProt Q9H3Y6). Kind of assay: Inhibition of SRMS (unknown origin) assessed as residual activity at 100 nM by KINOMEscan analysis relative to control.
Chain of Tyrosine-protein kinase Srms (Homo sapiens) (Q9H3Y6 whole entry): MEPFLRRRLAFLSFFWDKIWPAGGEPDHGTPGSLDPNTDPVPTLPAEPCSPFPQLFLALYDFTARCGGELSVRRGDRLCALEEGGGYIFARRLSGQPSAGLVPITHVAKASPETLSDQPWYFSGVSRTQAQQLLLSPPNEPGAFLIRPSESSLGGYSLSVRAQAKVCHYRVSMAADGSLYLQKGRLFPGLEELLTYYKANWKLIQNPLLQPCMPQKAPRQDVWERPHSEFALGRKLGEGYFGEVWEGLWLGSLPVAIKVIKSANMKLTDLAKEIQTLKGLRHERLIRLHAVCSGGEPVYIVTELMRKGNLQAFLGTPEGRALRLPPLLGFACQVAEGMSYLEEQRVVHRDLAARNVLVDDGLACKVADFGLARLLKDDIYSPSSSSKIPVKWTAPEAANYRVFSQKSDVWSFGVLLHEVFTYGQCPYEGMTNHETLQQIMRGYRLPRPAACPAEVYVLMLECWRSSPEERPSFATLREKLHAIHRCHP
The target in assay [11] is Dual specificity testis-specific protein kinase 1 (Homo sapiens) (UniProt Q15569). The assay can be described thus: Inhibition of TESK1 (unknown origin) assessed as residual activity at 100 nM by KINOMEscan analysis relative to control.
Chain of Dual specificity testis-specific protein kinase 1 (Homo sapiens) (Q15569 whole entry, looked up): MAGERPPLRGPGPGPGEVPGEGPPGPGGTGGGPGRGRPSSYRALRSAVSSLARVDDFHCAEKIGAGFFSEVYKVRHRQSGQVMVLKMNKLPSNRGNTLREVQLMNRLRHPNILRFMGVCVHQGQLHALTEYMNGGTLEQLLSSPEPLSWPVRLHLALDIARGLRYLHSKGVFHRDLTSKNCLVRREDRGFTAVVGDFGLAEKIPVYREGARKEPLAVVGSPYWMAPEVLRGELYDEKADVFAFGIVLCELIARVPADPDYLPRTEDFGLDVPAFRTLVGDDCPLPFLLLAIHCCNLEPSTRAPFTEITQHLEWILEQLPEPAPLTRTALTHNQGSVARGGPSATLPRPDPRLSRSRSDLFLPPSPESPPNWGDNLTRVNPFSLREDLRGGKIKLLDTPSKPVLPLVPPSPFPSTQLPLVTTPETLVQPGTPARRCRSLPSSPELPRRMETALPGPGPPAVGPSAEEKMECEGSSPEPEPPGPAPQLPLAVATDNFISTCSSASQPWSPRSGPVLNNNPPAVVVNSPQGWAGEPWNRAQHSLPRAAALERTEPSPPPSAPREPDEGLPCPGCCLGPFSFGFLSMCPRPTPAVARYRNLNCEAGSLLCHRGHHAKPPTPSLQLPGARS

Chain of Ephrin type-A receptor 7 (Homo sapiens) (Q15375 28-998 limits assumed): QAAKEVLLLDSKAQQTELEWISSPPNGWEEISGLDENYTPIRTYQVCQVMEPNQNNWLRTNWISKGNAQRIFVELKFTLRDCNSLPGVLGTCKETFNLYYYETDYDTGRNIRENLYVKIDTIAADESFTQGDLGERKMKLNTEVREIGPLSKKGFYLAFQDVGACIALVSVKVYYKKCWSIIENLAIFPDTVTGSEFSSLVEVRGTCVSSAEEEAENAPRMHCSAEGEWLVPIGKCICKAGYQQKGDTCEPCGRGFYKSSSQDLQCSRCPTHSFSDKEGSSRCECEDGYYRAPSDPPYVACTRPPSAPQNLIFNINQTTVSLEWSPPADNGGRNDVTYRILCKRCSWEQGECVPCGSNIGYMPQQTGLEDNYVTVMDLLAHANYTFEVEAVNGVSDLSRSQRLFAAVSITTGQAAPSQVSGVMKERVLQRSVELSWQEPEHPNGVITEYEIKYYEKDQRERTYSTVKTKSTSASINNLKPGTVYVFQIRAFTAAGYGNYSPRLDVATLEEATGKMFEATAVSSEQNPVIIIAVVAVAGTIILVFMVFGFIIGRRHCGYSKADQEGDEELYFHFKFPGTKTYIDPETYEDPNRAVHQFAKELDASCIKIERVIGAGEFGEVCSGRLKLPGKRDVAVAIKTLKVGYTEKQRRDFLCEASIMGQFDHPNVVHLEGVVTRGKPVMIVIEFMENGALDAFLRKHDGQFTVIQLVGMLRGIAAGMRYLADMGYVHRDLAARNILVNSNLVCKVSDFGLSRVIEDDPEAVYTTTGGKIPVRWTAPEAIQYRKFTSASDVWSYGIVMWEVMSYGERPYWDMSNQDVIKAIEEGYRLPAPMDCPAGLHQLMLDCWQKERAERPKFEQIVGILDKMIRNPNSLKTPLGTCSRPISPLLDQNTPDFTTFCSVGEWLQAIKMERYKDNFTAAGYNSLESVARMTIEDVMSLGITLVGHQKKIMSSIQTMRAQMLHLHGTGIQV

In the case of `COc1cc2ncnc(N[C@H](C)c3cccc4ccccc34)c2cc1OC`, the inhibition in [1] worked out at 95%. Besides, the Activity in [2] came out at 85%; in assay [3], 100%; in assay [4] it was 72%; in [5], 78%; in [6], 90%; in assay [7], 100%. Moreover, the Activity in assay [8] was determined as 69%; in assay [9], 88%; in assay [10], 79%; in assay [11], 73%.

In general, inhibition refers to the share of the control response that was lost under treatment.

Values taken from ChEMBL document CHEMBL5678818, “Discovery of potent SOS1 inhibitors that block RAS activation via disruption of the RAS-SOS1 interaction” (Proc Natl Acad Sci U S A, 2019).
